Measured values reported in PubChem BioAssay (NCI).
“And” between values parts separate entries of the source, which are not always exact repeats. Equal values may be shown once.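 Briefly, cells in 96-well plates were exposed to five compound concentrations for 48 h, and endpoints were estimated by linear interpolation. Abbreviation: GI50, concentration required for 50% inhibition of growth. TGI denotes the concentration required for complete inhibition of growth.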

Experiments:
Assay in all cases: NCI-60 cell line screen, 48 h
UACC-62 melanoma = system: UACC-62 melanoma
LOX IMVI melanoma = system: LOX IMVI melanoma
MOLT-4 leukemia = system: MOLT-4 leukemia
COLO 205 colon = system: COLO 205 colon
SNB-19 CNS = system: SNB-19 CNS
SF-295 CNS = system: SF-295 CNS
RXF 393 renal = system: RXF 393 renal
EKVX NSCLC = system: EKVX NSCLC
CCRF-CEM leukemia = system: CCRF-CEM leukemia
HOP-92 NSCLC = system: HOP-92 NSCLC

Compound | TGI (UACC-62 melanoma) | TGI (LOX IMVI melanoma) | TGI (MOLT-4 leukemia) | TGI (COLO 205 colon) | TGI (SNB-19 CNS) [µM] | TGI (SF-295 CNS) | TGI (RXF 393 renal) | TGI (EKVX NSCLC) | TGI (CCRF-CEM leukemia) [µM] | TGI (HOP-92 NSCLC) | GI50 (UACC-62 melanoma) | GI50 (LOX IMVI melanoma) | GI50 (MOLT-4 leukemia) | GI50 (COLO 205 colon) | GI50 (SNB-19 CNS) | GI50 (SF-295 CNS) | GI50 (RXF 393 renal) | GI50 (EKVX NSCLC) | GI50 (CCRF-CEM leukemia) | GI50 (HOP-92 NSCLC)
COc1cc(Br)c(/C=N/N=C(\N)NO)cc1OC | 32.3 µM | 61.2 µM | > 100 µM | 25.6 µM | > 100 | > 100 µM | 54.4 µM | > 100 µM | > 100 | 90.5 µM |  |  |  |  |  |  |  |  |  | 
Cc1ccc(-c2csc3ncnc(Nc4cccc(O)c4)c23)cc1 | 73 µM | 62 µM | > 100 µM | > 100 µM | > 100 | 24.7 µM | 81.2 µM | 98 µM | 91.1 | 35.9 µM | 28 µM | 25.9 µM | 41.6 µM | 36.4 µM | 50.7 µM | 2.13 µM | 48.2 µM | 37.8 µM | 21 µM | 14.3 µM
O=C(Nc1ccc(Br)cc1)c1cc(Br)ccc1O | 1.07 µM and 2.25 µM | 4.46 µM and 4.42 µM | 3.2 µM and 3.89 µM | 3.1 µM and 3.25 µM | > 93.1 | 2.3 µM and 4.08 µM | 3.89 µM | 36.6 µM and > 20.1 µM |  | 0.698 µM and 2.88 µM | 0.235 µM and 0.371 µM | 0.549 µM and 1.09 µM | 0.683 µM and 0.799 µM | 1.66 µM and 1.71 µM | 0.339 µM and 1 µM | 0.712 µM and 1.39 µM | 0.612 µM | 0.788 µM and 0.75 µM | 0.862 µM and 0.752 µM | 0.218 µM and 0.332 µM
O=C(N/N=C/c1coc2ccc(Cl)cc2c1=O)c1cc(O)c(O)c(O)c1 | 40.1 µM | 56.6 µM | 61.6 µM | > 100 µM | > 100 | > 100 µM | > 100 µM | > 100 µM | > 100 | > 100 µM | 19.8 µM | 22.5 µM | 13.7 µM | 55.7 µM | 72.8 µM | 45.8 µM | 34.9 µM | 27.1 µM | 33.2 µM | 31.9 µM
C=CCC(NCc1ccccc1)c1cn(C(=O)OCC)c2ccccc12 (centres undefined) | 50.6 µM | 30.9 µM | 38.1 µM | > 100 µM | > 100 | 47.4 µM | 46.5 µM | 55.4 µM | 42.1 | 40.7 µM | 22.6 µM | 17 µM | 10 µM | 28 µM | 64.3 µM | 21.7 µM | 19 µM | 20.7 µM | 19.4 µM | 13.8 µM
COc1cc(Br)c(C=Nc2cccc3ccc(OS(=O)(=O)c4ccc([N+](=O)[O-])cc4)cc23)cc1OC | > 100 µM | > 100 µM | > 100 µM | > 100 µM | > 100 | > 100 µM | > 100 µM | > 100 µM | > 100 | > 100 µM |  |  |  |  |  |  |  |  |  | 
COc1ccc(-c2cc(-c3ccco3)c(C#N)c(=O)n2C2OC(COC(C)=O)C(OC(C)=O)C(OC(C)=O)C2OC(C)=O)cc1 (centres undefined) | > 100 µM | > 100 µM and 59.6 µM | > 100 µM | > 100 µM | > 100 | > 100 µM | > 100 µM and 66.2 µM | > 100 µM | > 100 | > 100 µM and 62.7 µM | > 100 µM and 17.2 µM | 59.4 µM and 14.1 µM |  |  | > 100 µM and 42.8 µM | > 100 µM and 25.7 µM | > 100 µM and 21.8 µM |  |  | 
O=C1c2c[n+](Cc3ccccc3)ccc2-c2nc3ccccc3c3ccnc1c23 | 1.78 µM | 2.02 µM | 1.89 µM | 1.11 µM | 2.55 | 5.71 µM | 1.56 µM | 4.79 µM | 2.81 | 1.9 µM | 0.594 µM | 0.583 µM | 0.719 µM | 0.409 µM | 0.389 µM | 0.585 µM | 0.534 µM | 1.28 µM | 0.951 µM | 0.548 µM
O=S(=O)([O-])c1ccc(C=Nc2ccccc2)c([O-])c1.O=S(=O)([O-])c1ccc(C=Nc2ccccc2)c([O-])c1.[Co+2] | > 100 µM | > 100 µM | > 100 µM | > 100 µM | > 100 | > 100 µM | > 100 µM | > 100 µM | > 100 | > 100 µM | 3.96 µM | 3.01 µM | 7.71 µM | 70.5 µM | > 100 µM | > 100 µM | > 100 µM | 43.2 µM | 11.7 µM | > 100 µM
CC[P+](C)(C)CC | > 100 µM | > 100 µM | > 100 µM | > 100 µM | > 100 | > 100 µM | > 100 µM | > 100 µM | > 100 | > 100 µM |  |  |  |  |  |  |  |  |  | 
